Test results taken from patent publication US20240050407A1, “METHODS FOR DELAY OF EJACULATION IN HUMAN MALES” (priority 2020, published 2024).

Legend:
Assay type in all cases: in vivo
[1] = tested on: para-chloroamphetamine (PCA)-induced ejaculation model in anaesthetized Wistar rats; experiment: Rat para-chloroamphetamine (PCA)-induced ejaculation model (ejaculation, latency, seminal vesicle pressure); conditions: for Seminal vesicle pressure response vs vehicle, FIG. 10, FIG. 11 / Ejaculation latency vs vehicle, FIG. 9: 20 mg/kg or 10 mg/kg IP 1 h before PCA
Protocol: Experiments were performed to assess the effect of an acute treatment of alkaloids, mesembrine, mesembrenone, mesembrenol and mesembranol, at their maximal tolerable dose (MTD) on ejaculation latency in a para-chloroamphetamine (PCA)-induced ejaculation model in anaesthetized Wistar rats.
Adult male Wistar rats (Charles-River, France, 10-11 weeks old) were housed at least 10 days prior to the beginning of the experiments with free access to regular diet and water and maintained on an inversed 12 hour dark/light cycle (9:00/21:00). All procedures were performed in accordance with the legislation on the use of laboratory animals (NIH publication N°85-23, revised 1996) and Animal Care Regulations in force in France as of 1988 (authorization from competent French Ministry of Agriculture—Agreement No. B78-423-1, July 2017).
Rats received a single administration by intraperitoneal (IP) route of either vehicle, mesembrine, mesembrenone, mesembrenol, or mesembranol 1 hour before the in vivo evaluation of PCA-induced ejaculation as follows:
Part 1: Rats received a single IP injection of either vehicle control (0.5% hydroxypropyl methylcellulose (HPMC) in sterile water, n=10), mesembrine at 20 mg/kg (n=9), 10 mg/kg (n=11), 2 mg/kg (n=12), 200 μg/kg (n=12) and 20 μg/kg (n=10) 1 hour prior to administration of PCA. Treatment groups for Part I are outlined below in Table 2:
Part 2: Rats received a single IP injection of mesembrenone at 20 mg/kg (n=10). Treatment groups for Part 2 are outlined in Table 3.
Part 3: Rats received single IP injection of mesembrenol at 20 mg/kg (n=4) or 10 mg/kg (n=6) or mesembranol at 20 mg/kg (n==6) or 10 mg/kg (n=6). Treatment for Part 3 are outlined in Table 4.
After treatment administration, the rats underwent an evaluation of their ejaculation function induced by PCA administration. Thus, the expulsion of seminal plug(s) and seminal vesicle pressure (SVP) increase was evaluated. At the end of experimental period, the rats were euthanized by an intracardiac injection of pentobarbital (Eutasol®, Centravet, France).
Drug Preparation. Alkaloids were diluted to a 100 mg/mL final concentration (stock solution) and mixed by vortex. Then, aliquots per rat were prepared and stored at −20° C. until use. The day of experiment, 1 aliquot per rat was thawed and diluted to the desired concentration. The volume of administration was either 2 mL/kg for the IP administration or 5 mL/kg for the oral gavage, in line with good practice for administration volume in rat.
Ejaculation was induced by intraperitoneal administration of P-chloroamphetamine (PCA) at 5 mg/kg in anesthetized rats according to previously described methods (Clement el al., Role of peripheral innervation in p-chloroamphetamine-induced ejaculation in anesthetized rats. J Androl 2006; 27:381-389). PCA is an amphetamine derivative that liberates catecholamines and serotonin from monoaminergic nerve terminals. Systemic administration of PCA has been reported to induce ejaculation in both conscious (Humphries et al, 1981; Rènyi, 1985) and anesthetized (Yonezawa et al, 2000) rats.
Seminal vesicle pressure (SW) was measured as a physiological marker for the emission phase of ejaculation (Clement P, Giuliano F. Physiology and Pharmacology of Ejaculation. Basic Clint Pharmacol Toxicol 201.6 119 Suppl 3:18-25),
Rats were anesthetized and their temperature maintained at 37° C. using a homoeothermic blanket. The carotid artery was catheterized with polyethylene tubings filled with heparinized saline (50 UI/ml) to record continuously blood pressure (BP) via a pressure transducer (Elcomatic 750, Glasgow, UK). Pressure was recorded using specific data acquisition software (Elphy, CNRS, France).
For measuring SVP, a suprapubic midline incision was performed to expose seminal vesicles and a polyethylene catheter (0.50 mm), filled with mineral oil, was inserted into one seminal vesicle through the apex and connected to a pressure transducer (Elcomatic 750, Glasgow, UK). […]

[2] = tested on: healthy human male subjects; experiment: Ejaculation latency in healthy human males after pure mesembrine
Protocol: Experiments were performed to determine the effects of pure mesembrine on ejaculation in male subjects. 0.5 mg, 1 mg, 2.5 mg, and 5 mg doses of pure mesembrine (Cayman Chemical Company, MI, USA) were administered by oral, nasal or sublingual routes to healthy human male subjects. The formulation for oral (swallowed) and sublingual (held under tongue for 5 minutes) was 2 mg mesembrine/mL 40% aqueous for oral and sublingual. The nasal spray formulation was 0.4 mg mesembrine/mL 1% w/w NaCl saline delivered via metered nasal spray device. Mesembrine was administered 20 minutes prior to sexual activity. The sexual activity was either solo masturbation (“self”) or partnered intercourse with a female partner (“partnered”). Latency time of ejaculation was measured and calculated by time from start of sexual activity to ejaculation. […] In all test cases, ejaculation coincided with orgasm. In all cases where ejaculation was not achieved, orgasm was also not achieved.

[3] = tested on: Wistar rats; experiment: Maximal tolerable dose (MTD) in rats; conditions: rat, single IP administration
[4] = tested on: healthy human male subjects; experiment: Ejaculation latency in healthy human males after pure mesembrine; conditions: Subject D, 70 kg; 0.05 mg; Self; nasal spray (in aqueous 1% w/w NaCl)
[5] = mesembrine 20 μg/kg single IP 1 h before PCA, 30-min observation
[6] = mesembrine 200 μg/kg single IP 1 h before PCA, 30-min observation
[7] = mesembrine 2 mg/kg single IP 1 h before PCA, 30-min observation
[8] = mesembrine 10 mg/kg single IP 1 h before PCA, 30-min observation
[9] = mesembrine 20 mg/kg single IP 1 h before PCA, 30-min observation

COc1ccc([C@@]23CCC(=O)C[C@@H]2N(C)CC3)cc1OC [Mesembrine, mesembrine]
ejaculation during the 30-minute observation period (in words) ([1]; 20 mg/kg IP 1 h before PCA): did not ejaculate | rats that did not ejaculate during the 30-min observation period following PCA injection ([1]; 20 mg/kg IP 1 h before PCA): 100% | Ejaculation latency (ejaculatory response vs vehicle control), FIG. 3 ([1]; all dosage conditions tested (20 μg/kg to 20 mg/kg IP)): delayed ejaculatory response | Seminal vesicle pressure response assessed as amplitude and AUC vs vehicle control, FIG. 4, FIG. 5 ([1]; all mesembrine treatment cases (20 μg/kg to 20 mg/kg IP)): decreased | N of ejaculating rats [1, 5]: 9/9 | N of rats not ejaculating [1, 5]: 0/9 | Percentage of ejaculating rats [1, 5]: 100% | N of ejaculating rats [1, 6]: 10/11 | N of rats not ejaculating [1, 6]: 1/11 | Percentage of ejaculating rats [1, 6]: 91% | N of ejaculating rats [1, 7]: 4/12 | N of rats not ejaculating [1, 7]: 8/12 | Percentage of ejaculating rats [1, 7]: 33% | N of ejaculating rats [1, 8]: 7/12 | N of rats not ejaculating [1, 8]: 5/12 | Percentage of ejaculating rats [1, 8]: 58% | N of ejaculating rats [1, 9]: 0/10 | N of rats not ejaculating [1, 9]: 10/10 | Percentage of ejaculating rats [1, 9]: 0% | Qualitative experience ([2]; Subject A, 77 kg, 0.5 mg, Self, sublingual (5 min under tongue)): Orgasm with drug was more intense than average | Qualitative experience ([2]; Subject A, 77 kg, 1 mg, Self, sublingual (5 min under tongue)): Onset after dosing with drug felt at around 9 min; | Qualitative experience ([2]; Subject B, 75 kg, 0.5 mg, Self, oral): Significant lengthening of latency time noticed | Qualitative experience ([2]; Subject C, 100 kg, 0.5 mg, Self, oral): Did not complete ejaculation as an effect of drug. | Qualitative experience ([2]; Subject D, 70 kg, 1 mg, Self, oral): Satisfactory dosing to maintain control and easily | Qualitative experience ([2]; Subject D, 70 kg, 2.5 mg, Partnered, oral): Increased satisfaction from female partner noted. | Qualitative experience ([2]; Subject D, 70 kg, 5 mg, Partnered, oral): Did not complete ejaculation as an effect of drug. | ejaculation latency (in words) ([2]; all doses tested, oral, nasal or sublingual, 20 minutes prior to sexual activity): extended the ejaculation latency at all doses tested | maximal tolerable dose (MTD) [3]: 20 mg/kg (MTD) | Qualitative experience [4]: Effects noticed more rapidly than oral dosing.

COc1ccc([C@@]23C=CC(=O)C[C@@H]2N(C)CC3)cc1OC [mesembrenone]
Seminal vesicle pressure response vs vehicle, FIG. 7, FIG. 8 ([1]; 20 mg/kg IP 1 h before PCA): decreased | Ejaculation latency vs vehicle, FIG. 6 ([1]; 20 mg/kg IP 1 h before PCA, 30-min observation): delayed ejaculation

COc1ccc([C@@]23CC[C@@H](O)C[C@@H]2N(C)CC3)cc1OC [mesembranol]
Seminal vesicle pressure response vs vehicle, FIG. 10, FIG. 11 [1]: decreased | Ejaculation latency vs vehicle, FIG. 9 ([1]; 30-min observation): delayed ejaculation

COc1ccc(C23C=CC(O)CC2N(C)CC3)cc1OC (centres unmarked) [mesembrenol]
Seminal vesicle pressure response vs vehicle, FIG. 10, FIG. 11 [1]: decreased | Ejaculation latency vs vehicle, FIG. 9 ([1]; 30-min observation): delayed ejaculation
